Among the data in ChEMBL document CHEMBL2074342, “Kinetic analysis of rhodamines efflux mediated by the multidrug resistance protein (MRP1)” (Biophys J, 2003) are Activity values, retold here.

For the series, the target named is Multidrug resistance-associated protein 1 (Homo sapiens, UniProt P33527). Description: TP_TRANSPORTER: intracellular accumulation in MRP1-expressing GLC4/ADR cell. Format: functional, cell-based. The settings on record: glc-4/adr.
Multidrug resistance-associated protein 1, sequence (P33527 whole entry): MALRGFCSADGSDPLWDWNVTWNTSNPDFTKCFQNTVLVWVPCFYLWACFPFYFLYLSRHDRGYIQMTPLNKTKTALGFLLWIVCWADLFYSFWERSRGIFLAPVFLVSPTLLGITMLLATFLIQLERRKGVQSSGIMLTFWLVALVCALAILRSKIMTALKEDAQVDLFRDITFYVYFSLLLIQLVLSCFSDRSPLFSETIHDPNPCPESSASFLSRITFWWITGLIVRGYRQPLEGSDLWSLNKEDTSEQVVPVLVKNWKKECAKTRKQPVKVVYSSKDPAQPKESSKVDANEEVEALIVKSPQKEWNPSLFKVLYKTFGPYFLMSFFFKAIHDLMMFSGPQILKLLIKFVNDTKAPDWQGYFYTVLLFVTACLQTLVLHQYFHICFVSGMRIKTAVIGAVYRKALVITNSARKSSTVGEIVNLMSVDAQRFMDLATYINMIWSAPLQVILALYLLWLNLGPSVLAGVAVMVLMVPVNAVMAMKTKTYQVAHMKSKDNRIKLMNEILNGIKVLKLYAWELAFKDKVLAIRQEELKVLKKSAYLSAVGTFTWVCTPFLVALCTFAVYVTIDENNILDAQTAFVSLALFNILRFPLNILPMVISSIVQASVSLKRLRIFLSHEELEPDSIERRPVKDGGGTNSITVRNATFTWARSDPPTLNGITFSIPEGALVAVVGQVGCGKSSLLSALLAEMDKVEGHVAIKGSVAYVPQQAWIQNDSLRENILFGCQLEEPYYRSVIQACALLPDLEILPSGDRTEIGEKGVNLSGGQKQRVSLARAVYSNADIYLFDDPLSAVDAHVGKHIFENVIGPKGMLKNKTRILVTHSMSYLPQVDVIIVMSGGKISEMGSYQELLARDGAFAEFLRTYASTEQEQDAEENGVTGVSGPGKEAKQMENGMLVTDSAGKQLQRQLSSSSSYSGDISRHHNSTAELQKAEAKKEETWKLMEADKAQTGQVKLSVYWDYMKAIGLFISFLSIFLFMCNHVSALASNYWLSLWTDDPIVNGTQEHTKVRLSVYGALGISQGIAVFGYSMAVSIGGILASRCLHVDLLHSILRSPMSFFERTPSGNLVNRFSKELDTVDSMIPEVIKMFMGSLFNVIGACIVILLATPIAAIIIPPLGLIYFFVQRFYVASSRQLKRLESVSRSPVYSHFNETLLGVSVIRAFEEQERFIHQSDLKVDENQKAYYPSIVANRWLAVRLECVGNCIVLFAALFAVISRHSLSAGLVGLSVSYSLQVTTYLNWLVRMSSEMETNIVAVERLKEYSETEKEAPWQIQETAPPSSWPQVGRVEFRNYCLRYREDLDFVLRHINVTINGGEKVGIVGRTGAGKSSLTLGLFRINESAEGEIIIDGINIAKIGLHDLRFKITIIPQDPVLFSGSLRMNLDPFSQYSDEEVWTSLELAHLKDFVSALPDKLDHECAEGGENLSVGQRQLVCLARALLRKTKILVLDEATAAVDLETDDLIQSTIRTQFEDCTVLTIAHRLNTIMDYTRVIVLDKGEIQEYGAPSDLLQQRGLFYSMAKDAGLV
Consider `CC/N=c1\cc2oc3cc(NCC)c(C)cc3c(-c3ccccc3C(=O)OCC)c-2cc1C.Cl` [RHODAMINE 6G HYDROCHLORIDE], for which the Activity entry is “substrate [+]”.

In the case of `CN(C)c1ccc2c(-c3ccccc3C(=O)[O-])c3ccc(N(C)C)cc3[o+]c2c1` [TETRAMETHYLRHODAMINE], the Activity result is “substrate [+]”. As for `CCOC(=O)c1ccccc1-c1c2ccc(=[N+](C)C)cc-2oc2cc(N(C)C)ccc12` [RHODAMINE I], the Activity entry is “substrate [+]”.

Turning to `COC(=O)c1ccccc1-c1c2ccc(=[N+](C)C)cc-2oc2cc(N(C)C)ccc12` [RHODAMINE II], the Activity entry was “substrate [+]”.
